In one experiment the target is human p38α (Homo sapiens, UniProt Q16539). Kind of experiment: Purified and activated recombinant human p38α HTRF kinase assay. It counts as biochemical. As to conditions: 1 nM p38α, 50 μM ATP, 100 nM GST-ATF2-Avitag, 1 hour at RT; read-out: p38a IC50. The procedure: Purified and Activated Recombinant Human p38α Aassay
Kinase Reaction Buffer: Kinase reaction buffer for p38α HTRF assays consists of 50 mM Tris-pH 7.5, 5 mM MgCl2, 0.1 mg/mL BSA, 100 μM Na3VO4 and 0.5 mM DTT.
HTRF Detection Buffer: HTRF detection buffer contains 100 mM HEPES-pH 7.5, 100 mM NaCl, 0.1% BSA, 0.05% Tween-20, and 10 mM EDTA.
Serial Dilution of Compounds: Compounds were dissolved in 100% DMSO and serially diluted (3 fold, 10 point) in a polypropylene 96-well microtiter plate (drug plate). The final starting concentration of compounds in the p38a enzymatic assays was 1 μM. Columns 6 and 12 (HI controls and LO controls respectively) in the drug plate were reserved as controls and contained only DMSO. Kinase Reaction: The p38α kinase reactions were carried out in a polypropylene 96-well black round bottom assay plate in total volume of 30 μL kinase reaction buffer. Appropriate concentration of purified and activated enzyme (recombinant human) was mixed with indicated concentration of ATP and 100 nM GST-ATF2-Avitag, in the presence or absence (HI control) of Compound. See table below for actual concentrations. In the absence of substrate, the background was measured as LO control. The reaction was allowed to incubate for 1 hour at RT. Assay Reagent Concentrations: The final reagent concentrations were 1 nM p38α and 50 μM ATP. The Km for ATP of the enzyme was 103 μM, giving a ratio of ATP concentration to Km of 0.49. […] After 60 minutes incubation at room temperature, the assay plate was read in a Discovery Plate Reader. The wells were excited with coherent 320 nm light and the ratio of delayed ([…] post excitation) emissions at […] (native europium fluorescence) and 665 nm (europium fluorescence transferred to allophycocyanin—an index of substrate phosphorylation) was determined (Park et al, 1999). Data Analysis: The proportion of substrate phosphorylated in the kinase reaction in the presence of compound compared with that phosphorylated in the presence of DMSO vehicle alone (HI control) was calculated using the formula: % control (POC)=(compound−average LO)/(average HI−average LO)*100. Data (consisting of POC and inhibitor concentration in μM) was fitted to a 4-parameter equation (y=A+((B−A)/(1+((x/C)^D))), where A is the minimum y (POC) value, B is the maximum y (POC), C is the x (compound concentration) at the point of inflection and D is the slope factor, using a Levenburg-Marquardt non-linear regression algorithm.
The inhibition constant (Ki) of the inhibitor was estimated from the IC50 (compound concentration at the point of inflection C) using the Cheng-Prussof equation: Ki=IC50/(1+S/Km), where S is the ATP substrate concentration, and Km is the Michaelis constant for ATP as determined experimentally. All results were expressed as the mean±the standard error of the mean. Data acquisition and non-linear regression algorithms were performed using Activity Base v5.2 and XL-fit software v4.1 respectively. All data was archived using Activity Base v5.2 software.

Experiment [1] deals with TNF-α induced IL-8 in 50% human whole blood. Description: Inhibition of TNF-α induced IL-8 in 50% human whole blood. Format: cell-based. As to conditions: 50% human whole blood activated with 1 nM TNF-α, secreted IL-8, 16-18 hours; read-out: WB TNF/IL8 IC50. As to the method:
Inhibition of TNF-α Induced IL-8 in 50% Human Whole Blood
Test compounds were evaluated in vitro for the ability to inhibit the production of secreted IL-8 by whole blood activated with TNF-α. Fresh human whole blood was obtained from healthy, non-medicated volunteers in sodium heparin tubes.
Compound Dilution—Assay Procedure
Test compounds are serially diluted 1:3 in DMSO and then diluted 1:250 into R10 (RPMI 1640, 10% human serum AB, 1× pen/strep/glutamine) to the 4× working concentration to be used in the assay. 100 ul heparinized whole blood is plated into wells of 96 well flat bottom plates. 50 ul of either 4× compound or DMSO control (Final DMSO concentration is 0.1%) are added to the appropriate wells. Plates are incubated for 1 hour at 37 degrees Celsius. 50 ul of 4× TNF-α (4 nM TNF-α, for a final concentration of 1 nM) or control (media alone) is added to the appropriate wells (Total volume=200 ul). Plates are incubated overnight (16-18 hours). 100 ul of supernatant is collected and stored in 96-well round bottom polypropylene plates at −80 degrees Celsius or assayed immediately for IL-8.
Cytokines are measured on antibody (Ab) sandwich ECL based 96-well detection plates. 20 ul of supernatant are added to plate and plate is sealed and shaken at RT for 1 hour. 130 ul of detection Ab cocktail is added and plates are sealed and shaken for 1 hour in the dark at RT. Plates are read on MSD Sector HTS instrument. Data are analyzed and IC50 values generated using Activity Base and Xl-fit programs.

human p38α, sequence (Q16539 whole entry): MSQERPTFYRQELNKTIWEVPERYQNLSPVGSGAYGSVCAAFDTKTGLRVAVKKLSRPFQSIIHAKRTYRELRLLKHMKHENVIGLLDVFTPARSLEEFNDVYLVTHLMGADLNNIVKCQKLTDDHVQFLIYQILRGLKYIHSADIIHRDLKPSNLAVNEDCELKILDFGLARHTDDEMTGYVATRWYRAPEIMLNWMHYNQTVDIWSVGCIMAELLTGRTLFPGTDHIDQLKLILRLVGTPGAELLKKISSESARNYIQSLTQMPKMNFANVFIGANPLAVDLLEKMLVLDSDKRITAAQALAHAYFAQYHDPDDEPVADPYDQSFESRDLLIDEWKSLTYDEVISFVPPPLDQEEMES

For `CCn1c(=O)c(-c2cc(C(N)=O)cc(F)c2C)nc2cnn(-c3c(F)cccc3F)c21` [Example 12, 3-(1-(2,6-difluorophenyl)-7-ethyl-6-oxo-6,7-dihydro-1H-pyrazolo[3,4-b]pyrazin-5-yl)-5-fluoro-4-methylbenzamide], the IC50 on human p38α came to 22 nM; in experiment [1], 23 nM.

As to `Cc1c(F)cc(C(=O)Nc2ccon2)cc1-c1nc2cnn(-c3ccc(F)cc3F)c2n(C)c1=O` [Example 8, 3-(1-(2,4-difluorophenyl)-7-methyl-6-oxo-6,7-dihydro-1H-pyrazolo[3,4-b]pyrazin-5-yl)-5-fluoro-N-3-isoxazolyl-4-methylbenzamide], the IC50 at human p38α is 4.6 nM; in experiment [1] it was 13 nM.

`Cc1ccc(C(N)=O)cc1-c1nc2cnn(-c3c(F)cccc3F)c2n(C)c1=O` [Example 4, 3-(1-(2,6-difluorophenyl)-7-methyl-6-oxo-6,7-dihydro-1H-pyrazolo[3,4-b]pyrazin-5-yl)-4-methylbenzamide]: the IC50 on human p38α was found to be 8.5 nM; in experiment [1] it was 41 nM.

In the case of `Cc1ccc(C(=O)Nc2ccon2)cc1-c1nc2cnn(-c3c(F)cccc3F)c2n(C)c1=O` [Example 10, 3-(1-(2,6-difluorophenyl)-7-methyl-6-oxo-6,7-dihydro-1H-pyrazolo[3,4-b]pyrazin-5-yl)-N-3-isoxazolyl-4-methylbenzamide], the IC50 at human p38α was 10 nM; in experiment [1], 3.7 nM.

Take `CCn1c(=O)c(-c2cc(C(=O)NC3CC3)ccc2C)nc2cnn(-c3c(F)cccc3F)c21` [Example 5, N-cyclopropyl-3-(1-(2,6-difluorophenyl)-7-ethyl-6-oxo-6,7-dihydro-1H-pyrazolo[3,4-b]pyrazin-5-yl)-4-methylbenzamide]: the IC50 was determined as 1.4 nM at human p38α and 5.8 nM in experiment [1].

`CCn1c(=O)c(-c2cc(C(=O)Nc3ccon3)cc(F)c2C)nc2cnn(-c3ccc(F)cc3F)c21` [Example 2, 3-(1-(2,4-Difluorophenyl)-7-ethyl-6-oxo-6,7-dihydro-1H-pyrazolo[4,3-b]pyrazin-5-yl)-5-fluoro-N-(isoxazol-3-yl)-4-methylbenzamide]: the IC50 amounted to 2.5 nM on human p38α and 6.1 nM in experiment [1].

As to `Cc1c(F)cc(C(=O)NC2CC2)cc1-c1nc2cnn(-c3c(F)cccc3F)c2n(C)c1=O` [Example 1, N-Cyclopropyl-3-(1-(2,6-difluorophenyl)-7-methyl-6-oxo-6,7-dihydro-1H-pyrazolo[4,3-b]pyrazin-5-yl)-5-fluoro-4-methylbenzamide], the IC50 on human p38α was 1.8 nM; in experiment [1] it was 10.7 nM.

Take `CCn1c(=O)c(-c2cc(C(=O)NC3CC3)cc(F)c2C)nc2cnn(-c3ccc(F)cc3F)c21` [Example 9, N-cyclopropyl-3-(1-(2,4-difluorophenyl)-7-ethyl-6-oxo-6,7-dihydro-1H-pyrazolo[3,4-b]pyrazin-5-yl)-5-fluoro-4-methylbenzamide]: the IC50 at human p38α came to 5 nM; in experiment [1], 8.4 nM.

`Cc1c(F)cc(C(=O)Nc2ccon2)cc1-c1nc2cnn(-c3c(F)cccc3F)c2n(C)c1=O` [Example 6, 3-(1-(2,6-difluorophenyl)-7-methyl-6-oxo-6,7-dihydro-1H-pyrazolo[3,4-b]pyrazin-5-yl)-5-fluoro-N-3-isoxazolyl-4-methylbenzamide]: the results for the IC50 (at human p38α; in experiment [1]) were 1.2 nM and 3.2 nM, respectively.

As for `Cc1c(F)cc(C(=O)NC2CC2)cc1-c1nc2cnn(-c3ccc(F)cc3F)c2n(C)c1=O` [Example 7, N-cyclopropyl-3-(1-(2,4-difluorophenyl)-7-methyl-6-oxo-6,7-dihydro-1H-pyrazolo[3,4-b]pyrazin-5-yl)-5-fluoro-4-methylbenzamide], the IC50 at human p38α came out at 34 nM; in experiment [1], 25 nM.

For `Cc1ccc(C(=O)NC2CC2)cc1-c1nc2cnn(-c3c(F)cccc3F)c2n(C)c1=O` [Example 3, N-cyclopropyl-3-(1-(2,6-difluorophenyl)-7-methyl-6-oxo-6,7-dihydro-1H-pyrazolo[3,4-b]pyrazin-5-yl)-4-methylbenzamide], the IC50 on human p38α was 3.3 nM; in experiment [1] it was 7.3 nM.

Regarding `CCn1c(=O)c(-c2cc(C(=O)NC3CC3)cc(F)c2C)nc2cnn(-c3c(F)cccc3F)c21` [Example 11, N-cyclopropyl-3-(1-(2,6-difluorophenyl)-7-ethyl-6-oxo-6,7-dihydro-1H-pyrazolo[3,4-b]pyrazin-5-yl)-5-fluoro-4-methylbenzamide], the IC50 on human p38α was determined as 2.3 nM; in experiment [1], 3 nM.

As for `CCn1c(=O)c(-c2cc(C(=O)Nc3ccon3)ccc2C)nc2cnn(-c3c(F)cccc3F)c21` [Example 13, 3-(1-(2,6-difluorophenyl)-7-ethyl-6-oxo-6,7-dihydro-1H-pyrazolo[3,4-b]pyrazin-5-yl)-N-3-isoxazolyl-4-methylbenzamide], the IC50 at human p38α was 0.7 nM; in experiment [1] it was 1.2 nM.

For the origin of these results see patent US8367671B2, “Pyrazolo[3.4-B]pyrazine compounds as p38 modulators and methods of use as anti-inflamatory agents” (Amgen Inc., priority 2008, dated 2013).
